ChEMBL document CHEMBL4052776, “Discovery of 3-morpholino-imidazole[1,5-a]pyrazine BTK inhibitors for rheumatoid arthritis” (Bioorg Med Chem Lett, 2017)

How the values were obtained:
[1] = molecular target: T1, Tyrosine-protein kinase BTK (Homo sapiens, UniProt Q06187); assay: Inhibition of recombinant full-length His6-tagged BTK (unknown origin) expressed in baculovirus infected Sf9 cells using biotinylated A5 peptide as substrate preincubated for 60 mins followed by substrate addition measured after 120 mins by LANCE TR-FRET assay
[2] = molecular target: Tyrosine-protein kinase Lyn (Homo sapiens, UniProt P07948); assay: Inhibition of LYNB (unknown origin)
[3] = molecular target: Proto-oncogene tyrosine-protein kinase Src (Homo sapiens, UniProt P12931); assay: Inhibition of SRC (unknown origin)
[4] = molecular target: Voltage-gated inwardly rectifying potassium channel KCNH2 (Homo sapiens, UniProt Q12809); assay: Inhibition of human ERG by [35S]-MK499 displacement or iKr channel assay
[5] = molecular target: T2, Tyrosine-protein kinase TXK (Homo sapiens, UniProt P42681); assay: Inhibition of TXK (unknown origin)
T2 sequence (P42681 whole entry): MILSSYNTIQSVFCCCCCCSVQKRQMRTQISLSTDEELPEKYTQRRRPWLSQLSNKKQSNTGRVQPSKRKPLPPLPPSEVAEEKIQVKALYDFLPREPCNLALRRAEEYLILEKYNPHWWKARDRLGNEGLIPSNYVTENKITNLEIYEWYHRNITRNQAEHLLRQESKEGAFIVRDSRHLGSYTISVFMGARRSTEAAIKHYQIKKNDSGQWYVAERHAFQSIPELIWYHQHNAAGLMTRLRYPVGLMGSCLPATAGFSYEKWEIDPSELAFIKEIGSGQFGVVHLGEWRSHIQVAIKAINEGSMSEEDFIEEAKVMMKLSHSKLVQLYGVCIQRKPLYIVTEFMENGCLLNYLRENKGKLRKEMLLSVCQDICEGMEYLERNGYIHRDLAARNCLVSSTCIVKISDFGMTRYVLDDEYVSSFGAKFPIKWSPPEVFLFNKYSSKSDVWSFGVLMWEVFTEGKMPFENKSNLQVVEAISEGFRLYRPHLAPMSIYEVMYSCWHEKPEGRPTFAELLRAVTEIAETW

[6] = Oral bioavailability in rat at 10 mg/kg; type: ADME, organism-based; conditions: in vivo
[7] = molecular target: T3, Cytoplasmic tyrosine-protein kinase BMX (Homo sapiens, UniProt P51813); assay: Inhibition of BMX (unknown origin)
T3 sequence (P51813 whole entry): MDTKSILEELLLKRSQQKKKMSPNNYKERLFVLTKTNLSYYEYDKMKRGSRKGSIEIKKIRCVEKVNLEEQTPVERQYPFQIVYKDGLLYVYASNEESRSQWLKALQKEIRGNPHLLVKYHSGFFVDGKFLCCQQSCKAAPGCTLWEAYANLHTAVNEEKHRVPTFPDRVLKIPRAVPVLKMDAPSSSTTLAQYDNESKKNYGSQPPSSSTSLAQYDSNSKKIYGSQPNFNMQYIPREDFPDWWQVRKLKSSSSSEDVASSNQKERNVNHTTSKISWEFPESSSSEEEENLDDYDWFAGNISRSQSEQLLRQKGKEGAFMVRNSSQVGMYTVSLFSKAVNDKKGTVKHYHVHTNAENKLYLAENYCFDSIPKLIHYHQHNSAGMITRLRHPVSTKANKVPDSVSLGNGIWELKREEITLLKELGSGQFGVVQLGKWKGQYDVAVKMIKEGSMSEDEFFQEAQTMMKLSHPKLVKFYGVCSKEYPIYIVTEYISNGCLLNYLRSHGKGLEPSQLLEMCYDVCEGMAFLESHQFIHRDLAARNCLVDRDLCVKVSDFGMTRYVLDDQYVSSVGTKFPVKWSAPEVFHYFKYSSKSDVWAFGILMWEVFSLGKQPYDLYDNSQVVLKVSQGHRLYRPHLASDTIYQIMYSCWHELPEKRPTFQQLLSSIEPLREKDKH

[8] = species on record: Homo sapiens; assay: Selectivity ratio of IC50 for FRK (unknown origin) to IC50 for BTK (unknown origin)
[9] = Half life in rat at 10 mg/kg; type: ADME, organism-based; conditions: in vivo
[10] = species on record: Homo sapiens; assay: Selectivity ratio of IC50 for BMX (unknown origin) to IC50 for BTK (unknown origin)
[11] = molecular target: Protein-tyrosine kinase 6 (Homo sapiens, UniProt Q13882); assay: Inhibition of PTK6 (unknown origin)
[12] = molecular target: Tyrosine-protein kinase CSK (Homo sapiens, UniProt P41240); assay: Inhibition of CSK (unknown origin)
[13] = species on record: Homo sapiens; assay: Selectivity ratio of IC50 for PTK6 (unknown origin) to IC50 for BTK (unknown origin)
[14] = species on record: Homo sapiens; assay: Selectivity ratio of IC50 for TXK (unknown origin) to IC50 for BTK (unknown origin)
[15] = molecular target: Receptor tyrosine-protein kinase erbB-4 (Homo sapiens, UniProt Q15303); assay: Inhibition of ERBB4 (unknown origin)
[16] = molecular target: Tyrosine-protein kinase Srms (Homo sapiens, UniProt Q9H3Y6); assay: Inhibition of SRMS (unknown origin)
[17] = molecular target: T1, Tyrosine-protein kinase BTK; assay: Inhibition of BTK in human PBMC assessed as reduction in anti-IgM-induced MIP1beta
[18] = Total clearance in rat plasma at 10 mg/kg; type: ADME, organism-based
[19] = species on record: Homo sapiens; assay: Selectivity ratio of IC50 for LCK (unknown origin) to IC50 for BTK (unknown origin)
[20] = molecular target: Tyrosine-protein kinase FRK (Homo sapiens, UniProt P42685); assay: Inhibition of FRK (unknown origin)
[21] = species on record: Homo sapiens; assay: Selectivity ratio of IC50 for BLK (unknown origin) to IC50 for BTK (unknown origin)
[22] = species on record: Homo sapiens; assay: Selectivity ratio of IC50 for CSK (unknown origin) to IC50 for BTK (unknown origin)
[23] = species on record: Homo sapiens; assay: Selectivity ratio of IC50 for LYNB (unknown origin) to IC50 for BTK (unknown origin)
[24] = species on record: Homo sapiens; assay: Selectivity ratio of IC50 for SRC (unknown origin) to IC50 for BTK (unknown origin)

T1 sequence (Q06187 whole entry): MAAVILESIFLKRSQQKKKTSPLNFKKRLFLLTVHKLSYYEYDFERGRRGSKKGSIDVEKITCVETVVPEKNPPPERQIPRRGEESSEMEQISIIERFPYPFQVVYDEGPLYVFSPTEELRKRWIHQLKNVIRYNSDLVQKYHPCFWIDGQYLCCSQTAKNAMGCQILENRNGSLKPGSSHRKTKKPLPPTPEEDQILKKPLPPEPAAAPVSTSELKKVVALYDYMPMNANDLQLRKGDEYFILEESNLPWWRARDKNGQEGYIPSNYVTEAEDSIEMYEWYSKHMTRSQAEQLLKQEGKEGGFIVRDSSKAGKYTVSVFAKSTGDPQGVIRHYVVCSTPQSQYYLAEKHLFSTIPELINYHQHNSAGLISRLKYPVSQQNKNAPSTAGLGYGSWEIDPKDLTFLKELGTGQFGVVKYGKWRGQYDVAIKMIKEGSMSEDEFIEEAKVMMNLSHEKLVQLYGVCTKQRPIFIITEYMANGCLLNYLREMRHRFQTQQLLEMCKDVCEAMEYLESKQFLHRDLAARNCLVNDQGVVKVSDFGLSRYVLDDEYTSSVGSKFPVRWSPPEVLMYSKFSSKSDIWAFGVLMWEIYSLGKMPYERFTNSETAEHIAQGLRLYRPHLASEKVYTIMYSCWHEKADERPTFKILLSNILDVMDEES
Sequence of Receptor tyrosine-protein kinase erbB-4 (Q15303 whole entry): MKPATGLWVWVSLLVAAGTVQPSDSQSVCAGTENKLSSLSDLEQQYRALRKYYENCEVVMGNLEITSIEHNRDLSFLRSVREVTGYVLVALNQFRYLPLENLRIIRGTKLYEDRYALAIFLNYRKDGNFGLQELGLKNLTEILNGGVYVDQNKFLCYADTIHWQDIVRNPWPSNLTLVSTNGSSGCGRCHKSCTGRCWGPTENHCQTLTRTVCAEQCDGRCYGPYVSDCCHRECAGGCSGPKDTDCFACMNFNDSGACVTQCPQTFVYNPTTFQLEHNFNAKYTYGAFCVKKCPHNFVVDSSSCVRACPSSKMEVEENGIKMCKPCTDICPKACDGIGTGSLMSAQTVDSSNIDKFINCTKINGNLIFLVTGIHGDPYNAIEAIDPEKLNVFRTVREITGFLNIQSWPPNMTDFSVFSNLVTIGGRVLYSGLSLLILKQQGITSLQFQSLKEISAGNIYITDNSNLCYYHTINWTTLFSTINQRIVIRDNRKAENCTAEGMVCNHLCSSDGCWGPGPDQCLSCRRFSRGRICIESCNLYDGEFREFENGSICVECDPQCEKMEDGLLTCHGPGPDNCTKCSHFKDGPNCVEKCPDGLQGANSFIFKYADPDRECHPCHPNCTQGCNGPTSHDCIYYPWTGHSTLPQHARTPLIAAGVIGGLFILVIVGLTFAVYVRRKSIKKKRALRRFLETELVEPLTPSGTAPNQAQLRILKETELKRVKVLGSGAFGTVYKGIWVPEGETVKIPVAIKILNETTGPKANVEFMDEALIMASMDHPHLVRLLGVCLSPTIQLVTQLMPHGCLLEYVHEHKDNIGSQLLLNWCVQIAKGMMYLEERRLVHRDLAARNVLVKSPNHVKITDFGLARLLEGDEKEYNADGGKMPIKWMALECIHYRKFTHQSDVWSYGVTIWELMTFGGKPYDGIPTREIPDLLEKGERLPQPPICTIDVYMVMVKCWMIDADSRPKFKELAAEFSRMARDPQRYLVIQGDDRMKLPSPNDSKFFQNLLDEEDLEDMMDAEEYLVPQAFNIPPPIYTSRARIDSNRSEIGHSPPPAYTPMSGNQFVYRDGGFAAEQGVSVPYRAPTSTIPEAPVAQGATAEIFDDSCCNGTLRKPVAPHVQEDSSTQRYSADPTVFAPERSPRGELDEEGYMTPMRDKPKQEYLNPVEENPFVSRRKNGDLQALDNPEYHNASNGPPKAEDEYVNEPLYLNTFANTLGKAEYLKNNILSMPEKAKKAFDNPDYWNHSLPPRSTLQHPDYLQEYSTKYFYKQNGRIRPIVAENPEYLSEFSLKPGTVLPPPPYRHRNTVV
Sequence of Tyrosine-protein kinase FRK (P42685 whole entry): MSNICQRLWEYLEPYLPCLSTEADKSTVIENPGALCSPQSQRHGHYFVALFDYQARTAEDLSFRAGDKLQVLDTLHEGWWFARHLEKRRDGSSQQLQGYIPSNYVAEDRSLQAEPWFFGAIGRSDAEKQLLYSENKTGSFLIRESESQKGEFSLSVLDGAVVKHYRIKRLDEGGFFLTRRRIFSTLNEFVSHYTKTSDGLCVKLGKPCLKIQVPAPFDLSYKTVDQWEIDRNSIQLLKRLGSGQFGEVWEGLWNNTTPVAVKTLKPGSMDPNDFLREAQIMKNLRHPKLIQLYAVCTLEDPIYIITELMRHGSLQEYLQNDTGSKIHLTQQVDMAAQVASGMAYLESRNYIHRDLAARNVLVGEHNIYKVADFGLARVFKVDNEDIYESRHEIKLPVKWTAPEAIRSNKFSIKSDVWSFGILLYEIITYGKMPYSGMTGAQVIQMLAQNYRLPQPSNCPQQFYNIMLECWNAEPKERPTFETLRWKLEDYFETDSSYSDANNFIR
Sequence of Tyrosine-protein kinase Lyn (P07948 whole entry): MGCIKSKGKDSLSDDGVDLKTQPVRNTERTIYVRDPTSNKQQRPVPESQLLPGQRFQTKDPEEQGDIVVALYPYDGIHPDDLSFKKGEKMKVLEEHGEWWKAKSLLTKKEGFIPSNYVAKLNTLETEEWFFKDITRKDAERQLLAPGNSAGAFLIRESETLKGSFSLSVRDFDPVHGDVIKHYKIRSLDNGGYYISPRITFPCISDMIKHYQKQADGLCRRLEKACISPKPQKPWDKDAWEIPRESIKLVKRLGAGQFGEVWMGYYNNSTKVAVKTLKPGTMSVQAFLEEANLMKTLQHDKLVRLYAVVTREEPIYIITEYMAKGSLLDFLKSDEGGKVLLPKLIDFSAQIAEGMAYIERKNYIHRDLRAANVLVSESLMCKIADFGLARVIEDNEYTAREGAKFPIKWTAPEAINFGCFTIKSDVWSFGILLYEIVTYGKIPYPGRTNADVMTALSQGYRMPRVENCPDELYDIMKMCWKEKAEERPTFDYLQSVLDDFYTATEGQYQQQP
Sequence of Voltage-gated inwardly rectifying potassium channel KCNH2 (Q12809 whole entry): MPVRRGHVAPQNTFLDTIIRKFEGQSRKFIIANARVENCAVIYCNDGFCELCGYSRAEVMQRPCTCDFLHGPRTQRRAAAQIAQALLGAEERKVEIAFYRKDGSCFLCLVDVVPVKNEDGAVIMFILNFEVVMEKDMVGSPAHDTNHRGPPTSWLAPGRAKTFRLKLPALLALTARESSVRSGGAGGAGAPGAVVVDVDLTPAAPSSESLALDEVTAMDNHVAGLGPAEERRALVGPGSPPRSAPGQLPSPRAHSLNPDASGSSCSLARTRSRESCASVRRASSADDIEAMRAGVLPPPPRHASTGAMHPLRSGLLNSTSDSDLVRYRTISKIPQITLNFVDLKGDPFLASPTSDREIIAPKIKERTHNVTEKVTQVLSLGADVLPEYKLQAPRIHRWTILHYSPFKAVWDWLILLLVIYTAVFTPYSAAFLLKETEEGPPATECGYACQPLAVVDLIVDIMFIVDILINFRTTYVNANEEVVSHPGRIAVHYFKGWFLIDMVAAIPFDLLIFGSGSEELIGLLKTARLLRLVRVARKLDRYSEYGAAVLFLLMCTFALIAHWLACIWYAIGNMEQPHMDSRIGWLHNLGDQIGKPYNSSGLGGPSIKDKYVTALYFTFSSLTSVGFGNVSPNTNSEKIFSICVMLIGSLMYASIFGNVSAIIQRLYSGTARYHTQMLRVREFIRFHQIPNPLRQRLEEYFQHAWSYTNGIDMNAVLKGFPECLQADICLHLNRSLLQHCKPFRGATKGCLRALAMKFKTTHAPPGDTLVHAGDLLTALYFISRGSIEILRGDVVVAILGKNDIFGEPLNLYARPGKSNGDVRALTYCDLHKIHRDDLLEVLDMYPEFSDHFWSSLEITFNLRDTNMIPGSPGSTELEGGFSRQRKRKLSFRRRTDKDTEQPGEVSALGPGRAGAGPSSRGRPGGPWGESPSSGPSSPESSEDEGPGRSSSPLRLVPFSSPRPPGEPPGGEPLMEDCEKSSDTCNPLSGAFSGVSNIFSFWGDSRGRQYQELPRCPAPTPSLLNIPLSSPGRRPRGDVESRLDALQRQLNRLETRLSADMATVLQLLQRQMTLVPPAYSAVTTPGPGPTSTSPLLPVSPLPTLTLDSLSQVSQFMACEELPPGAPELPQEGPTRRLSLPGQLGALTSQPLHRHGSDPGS
Sequence of Protein-tyrosine kinase 6 (Q13882 whole entry): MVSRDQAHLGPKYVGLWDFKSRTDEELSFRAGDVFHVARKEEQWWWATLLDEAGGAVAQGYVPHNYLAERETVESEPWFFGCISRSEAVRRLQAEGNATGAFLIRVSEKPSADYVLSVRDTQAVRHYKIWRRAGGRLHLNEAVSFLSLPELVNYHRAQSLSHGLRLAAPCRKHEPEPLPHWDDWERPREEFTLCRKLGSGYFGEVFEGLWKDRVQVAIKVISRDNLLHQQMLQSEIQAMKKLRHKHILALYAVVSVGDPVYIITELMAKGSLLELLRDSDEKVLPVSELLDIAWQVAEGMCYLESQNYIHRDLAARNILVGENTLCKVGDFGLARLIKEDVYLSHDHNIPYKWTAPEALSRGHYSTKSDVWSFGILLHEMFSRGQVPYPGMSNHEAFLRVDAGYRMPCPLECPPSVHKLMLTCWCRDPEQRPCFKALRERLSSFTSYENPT

- IC50 [1]: 0.4 to 0.44 nM
- IC50 [2]: 1050 nM
- IC50 [3]: 512 nM
- IC50 [5]: 464 nM
- bioavailability [6]: 87%
- IC50 [7]: 703 nM
- Ratio IC50 [8]: 1600
- half-life [9]: 138 min
- Ratio IC50 [10]: 1600
- IC50 [11]: 173 nM
- IC50 [12]: 2150 nM
- Ratio IC50 [13]: 393
- Ratio IC50 [14]: 1060
- IC50 [15]: 514 nM
- IC50 [16]: 103 nM
- IC50 [17]: 26 nM
- clearance [18]: 1.4 mL/min/kg
- Ratio IC50 [19]: 227
- IC50 [20]: 706 nM
- Ratio IC50 [21]: 636
- Ratio IC50 [22]: 4880
- Ratio IC50 [23]: 2380
- Ratio IC50 [24]: 1160
Structure (SMILES): CC(C)C(=O)N1CCO[C@@H](c2nc(-c3ccc(C(=O)Nc4cc(C(F)(F)F)ccn4)cc3F)c3c(N)nccn23)C1
- IC50 [4]: 15 µM
